Laboratory results reported in ChEMBL document CHEMBL1153307, “Total synthesis and antihypertensive activity of (+/-)7,8-dihydroxy-3-methyl-isochromanone-4” (Bioorg Med Chem Lett, 2009).
Activity calls are given as the source filed them. No cut-off for these calls is given here.

Experiments:
Sus scrofa [1] = species: Sus scrofa; test: Inhibition of pig lung ACE at 1 pmol/L assessed as enzyme restrain rate; parameters: scale not given: the % may be the effect or the level left
Sus scrofa [2] = species: Sus scrofa; test: Inhibition of pig lung ACE at 10 umol/L assessed as enzyme restrain rate; parameters: scale not given: the % may be the effect or the level left
Sus scrofa [3] = species: Sus scrofa; test: Inhibition of pig lung ACE at 10 nmol/L assessed as enzyme restrain rate; parameters: scale not given: the % may be the effect or the level left
Sus scrofa [4] = species: Sus scrofa; test: Inhibition of pig lung ACE at 100 pmol/L assessed as enzyme restrain rate; parameters: scale not given: the % may be the effect or the level left
Sus scrofa [5] = species: Sus scrofa; test: Inhibition of pig lung ACE at 100 nmol/L assessed as enzyme restrain rate; parameters: scale not given: the % may be the effect or the level left
Sus scrofa [6] = species: Sus scrofa; test: Inhibition of pig lung ACE at 100 umol/L assessed as enzyme restrain rate; parameters: scale not given: the % may be the effect or the level left
Sus scrofa [7] = species: Sus scrofa; test: Inhibition of pig lung ACE at 1 umol/L assessed as enzyme restrain rate; parameters: scale not given: the % may be the effect or the level left
Sus scrofa [8] = species: Sus scrofa; test: Inhibition of pig lung ACE at 10 pmol/L assessed as enzyme restrain rate; parameters: scale not given: the % may be the effect or the level left
Rattus norvegicus [9] = test: Acute antihypertensive activity in two-kidney one-clip renal hypertensive rat assessed as reduction in diastolic arterial pressure at 100 mg/kg/day; format: functional, organism-based
Rattus norvegicus [10] = test: Acute antihypertensive activity in two-kidney one-clip renal hypertensive rat assessed as reduction in systolic arterial pressure at 100 mg/kg/day; format: functional, organism-based

Row | Activity (Sus scrofa [1]) | Activity (Sus scrofa [2]) | Activity (Sus scrofa [3]) | Activity (Sus scrofa [4]) | Activity (Sus scrofa [5]) | Activity (Sus scrofa [6]) | Activity (Sus scrofa [7]) | Activity (Sus scrofa [8]) | SMILES | Activity (Rattus norvegicus [9]) | Activity (Rattus norvegicus [10])
1 | 42% | 94% | 96% | 48% | 97% | 94% | 95% | 47% | C[C@H](CS)C(=O)N1CCC[C@H]1C(=O)O | – | –
2 | 34% | 61% | 87% | 44% | 74% | 77% | 61% | 41% | CC1OCc2c(ccc(O)c2O)C1=O (racemic) | Active | Active
